Laboratory results published in patent US20160000721A1, “GASTRO-RETENTIVE FORMULATIONS” (priority 2012, published 2016).
In brackets after ≈: the same amount, converted by molar mass.

How the values were obtained:
[1] = in vivo; cited from earlier work
[2] = Aqueous solubility of raltegravir at given pH; type: physicochemical
Text: In one embodiment of the invention, the drug is raltegravir or pharmaceutically acceptable salt thereof. Raltegravir (N-(4-fluorobenzyl)-5-hydroxy-1-methyl-2-(1-methyl-1-{[(5-methyl-1,3,4-oxadiazol-2-yl)carbonyl]amino}ethyl)-6-oxo-1,6-dihydropyrimidine-4-carboxamide) belongs to a novel class of anti-retroviral drugs indicated for the treatment of human immunodeficiency virus (HIV-1) known as integrase strand inhibitors. See, e.g., U.S. Pat. No. 7,169,780. More particularly preferred is the anhydrous crystalline potassium salt of raltegravir, which is characterized by an X-ray powder diffraction pattern obtained using copper Kα radiation which comprises 2Θ values in degrees of 5.9, 20.0 and 20.6. See U.S. Pat. No. 7,754,731, herein incorporated by reference in its entirety. This form of raltegravir is the active pharmaceutical ingredient (API) in […]® tablets.

For `Cc1nnc(C(=O)NC(C)(C)c2nc(C(=O)NCc3ccc(F)cc3)c(O)c(=O)n2C)o1` [Raltegravir, N-(4-fluorobenzyl)-5-hydroxy-1-methyl-2-(1-methyl-1-{[(5-methyl-1,3,4-oxadiazol-2-yl)carbonyl]amino}ethyl)-6-oxo-1,6-dihydropyrimidine-4-carboxamide], which terminal half-life [1] is on record?
Its terminal half-life is “approximately 9 hours”.

What about the α-phase half-life [1] of the same compound?
The α-phase half-life was “approximately 1 hour”.

And the solubility ([2]; aqueous buffer, pH range of 1-6)?
Its solubility is 20 µg/mL (≈ 45 µM).

And the solubility ([2]; pH 6.8, aqueous buffer)?
The solubility was 480 µg/mL (≈ 1080 µM).
